Legend:
[1] = system: HOP-62; experiment: Growth inhibition of human HOP62 cells assessed as cell growth at 0.01 uM incubated for 48 hrs by sulforhodamine B assay relative to control; assay type: functional; details: HOP-62, 48 h, read-out: Activity
[2] = system: NCI-H322M; experiment: Growth inhibition of human NCI-H322M cells incubated for 48 hrs by sulforhodamine B assay; assay type: functional, cell-based
[3] = system: COLO 205; experiment: Growth inhibition of human COLO205 cells assessed as cell growth at 0.01 uM incubated for 48 hrs by sulforhodamine B assay relative to control; assay type: functional; details: COLO 205, 48 h, read-out: Activity
[4] = system: SN12C; experiment: Growth inhibition of human SN12C cells incubated for 48 hrs by sulforhodamine B assay; assay type: functional, cell-based
[5] = system: ACHN; experiment: Growth inhibition of human ACHN cells assessed as cell growth at 0.1 uM incubated for 48 hrs by sulforhodamine B assay relative to control; assay type: functional; details: read-out: Activity
[6] = system: RXF 393; experiment: Growth inhibition of human RXF393 cells assessed as cell growth at 100 uM incubated for 48 hrs by sulforhodamine B assay relative to control; assay type: functional; details: RXF 393, 48 h, read-out: Activity
[7] = system: UACC-257; experiment: Growth inhibition of human UACC257 cells assessed as cell growth at 1 uM incubated for 48 hrs by sulforhodamine B assay relative to control; assay type: functional; details: UACC-257, 48 h, read-out: Activity
[8] = system: UACC-62; experiment: Growth inhibition of human UACC62 cells assessed as cell growth at 0.1 uM incubated for 48 hrs by sulforhodamine B assay relative to control; assay type: functional; details: UACC-62, 48 h, read-out: Activity
[9] = system: PC-3; experiment: Growth inhibition of human PC3 cells assessed as cell growth at 0.01 uM incubated for 48 hrs by sulforhodamine B assay relative to control; assay type: functional; details: PC-3, 48 h, read-out: Activity
[10] = system: HL-60(TB); experiment: Growth inhibition of human HL-60(TB) cells assessed as cell growth at 100 uM incubated for 48 hrs by sulforhodamine B assay relative to control; assay type: functional; details: HL-60, 48 h, read-out: Activity
[11] = system: SK-MEL-28; experiment: Growth inhibition of human SK-MEL-28 cells assessed as cell growth at 100 uM incubated for 48 hrs by sulforhodamine B assay relative to control; assay type: functional; details: SK-MEL-28, 48 h, read-out: Activity
[12] = system: SK-OV-3; experiment: Growth inhibition of human SKOV3 cells assessed as cell growth at 100 uM incubated for 48 hrs by sulforhodamine B assay relative to control; assay type: functional; details: SK-OV-3, 48 h, read-out: Activity
[13] = system: SK-MEL-2; experiment: Growth inhibition of human SK-MEL-2 cells assessed as cell growth at 0.01 uM incubated for 48 hrs by sulforhodamine B assay relative to control; assay type: functional; details: SK-MEL-2, 48 h, read-out: Activity
[14] = system: MOLT-4; experiment: Growth inhibition of human MOLT4 cells incubated for 48 hrs by sulforhodamine B assay; assay type: functional, cell-based; details: MOLT-4, 48 h
[15] = system: SR; experiment: Growth inhibition of human SR cells assessed as cell growth at 0.1 uM incubated for 48 hrs by sulforhodamine B assay relative to control; assay type: functional; details: read-out: Activity
[16] = system: HCT-116; experiment: Growth inhibition of human HCT116 cells assessed as cell growth at 0.1 uM incubated for 48 hrs by sulforhodamine B assay relative to control; assay type: functional; details: HCT-116, 48 h, read-out: Activity
[17] = system: SNB-19; experiment: Growth inhibition of human SNB19 cells assessed as cell growth at 0.1 uM incubated for 48 hrs by sulforhodamine B assay relative to control; assay type: functional; details: SNB-19, 48 h, read-out: Activity
[18] = system: 786-0; experiment: Growth inhibition of human 786-0 cells incubated for 48 hrs by sulforhodamine B assay; assay type: functional, cell-based; details: 786-0, 48 h
[19] = system: SK-MEL-2; experiment: Growth inhibition of human SK-MEL-2 cells incubated for 48 hrs by sulforhodamine B assay; assay type: functional, cell-based; details: SK-MEL-2, 48 h
[20] = system: MOLT-4; experiment: Growth inhibition of human MOLT4 cells assessed as cell growth at 0.1 uM incubated for 48 hrs by sulforhodamine B assay relative to control; assay type: functional; details: MOLT-4, 48 h, read-out: Activity
[21] = system: SN12C; experiment: Growth inhibition of human SN12C cells assessed as cell growth at 1 uM incubated for 48 hrs by sulforhodamine B assay relative to control; assay type: functional; details: read-out: Activity
[22] = system: NCI/ADR-RES; experiment: Growth inhibition of human NCI/ADR-RES cells assessed as cell growth at 100 uM incubated for 48 hrs by sulforhodamine B assay relative to control; assay type: functional; details: read-out: Activity
[23] = system: SF-539; experiment: Growth inhibition of human SF539 cells assessed as cell growth at 0.01 uM incubated for 48 hrs by sulforhodamine B assay relative to control; assay type: functional; details: SF-539, 48 h, read-out: Activity
[24] = system: Malme-3M; experiment: Growth inhibition of human MALME-3M cells assessed as cell growth at 1 uM incubated for 48 hrs by sulforhodamine B assay relative to control; assay type: functional; details: read-out: Activity
[25] = system: NCI-H460; experiment: Growth inhibition of human NCI-H460 cells assessed as cell growth at 1 uM incubated for 48 hrs by sulforhodamine B assay relative to control; assay type: functional; details: NCI-H460, 48 h, read-out: Activity
[26] = system: OVCAR-5; experiment: Growth inhibition of human OVCAR5 cells incubated for 48 hrs by sulforhodamine B assay; assay type: functional, cell-based; details: OVCAR-5, 48 h
[27] = system: PC-3; experiment: Growth inhibition of human PC3 cells assessed as cell growth at 100 uM incubated for 48 hrs by sulforhodamine B assay relative to control; assay type: functional; details: PC-3, 48 h, read-out: Activity
[28] = system: 786-0; experiment: Growth inhibition of human 786-0 cells assessed as cell growth at 0.01 uM incubated for 48 hrs by sulforhodamine B assay relative to control; assay type: functional; details: 786-0, 48 h, read-out: Activity
[29] = system: RXF 393; experiment: Growth inhibition of human RXF393 cells assessed as cell growth at 0.1 uM incubated for 48 hrs by sulforhodamine B assay relative to control; assay type: functional; details: RXF 393, 48 h, read-out: Activity
[30] = system: RXF 393; experiment: Growth inhibition of human RXF393 cells assessed as cell growth at 0.01 uM incubated for 48 hrs by sulforhodamine B assay relative to control; assay type: functional; details: RXF 393, 48 h, read-out: Activity
[31] = read-out: LC50 (the source's name)
[32] = read-out: pLC50 (the source's name) (converted)

## O=C(Nc1cccc(-n2cc(-c3ccncc3)c(-c3cc(O)cc(Cl)c3)n2)c1)Nc1ccc(Cl)c(C(F)(F)F)c1
[1]
  growth at 0.01 µM: 99%
[2]; read-out: GI50
  GI50: 3.15 µM
[2]; [31]
  CC50: 95.5 µM
[2]; read-out: TGI
  TGI: 13 µM
[2]; read-out: pGI50 (converted)
  GI50: 3.16 µM
[2]; [32]
  CC50: 95.5 µM
[2]; read-out: pTGI (converted)
  TGI: 12.9 µM
[3]
  growth at 0.01 µM: 102%
[4]; read-out: GI50
  GI50: 3.44 µM
[4]; read-out: LC50
  LC50: > 100 µM
[4]; read-out: TGI
  TGI: 17.2 µM
[4]; read-out: pGI50 (converted)
  GI50: 3.55 µM
[4]; read-out: pLC50 (converted)
  LC50: > 100 µM
[4]; read-out: pTGI (converted)
  TGI: 17 µM
[5]
  growth at 0.1 µM: 93%
[6]
  growth at 100 µM: -72%
[7]
  growth at 1 µM: 58%
[8]
  growth at 0.1 µM: 102%
[9]
  growth at 0.01 µM: 95%
[10]
  growth at 100 µM: -15%
[11]
  growth at 100 µM: -89%
[12]
  growth at 100 µM: -15%
[13]
  growth at 0.01 µM: 99%
[14]; read-out: GI50
  GI50: 1.99 µM
[14]; [31]
  CC50: > 100 µM
[14]; read-out: TGI
  TGI: 58.1 µM
[14]; read-out: pGI50 (converted)
  GI50: 2 µM
[14]; [32]
  CC50: > 100 µM
[14]; read-out: pTGI (converted)
  TGI: 5.75 µM
[15]
  growth at 0.1 µM: 98%
[16]
  growth at 0.1 µM: 103%
[17]
  growth at 0.1 µM: 95%
[18]; read-out: GI50
  GI50: 1.53 µM
[18]; [31]
  CC50: 5.2 µM
[18]; read-out: TGI
  TGI: 44.5 µM
[18]; read-out: pGI50 (converted)
  GI50: 1.82 µM
[18]; [32]
  CC50: 89.1 µM
[18]; read-out: pTGI (converted)
  TGI: 4.47 µM
[19]; read-out: GI50
  GI50: 2.2 µM
[19]; [31]
  CC50: 94.2 µM
[19]; read-out: TGI
  TGI: 45.5 µM
[19]; read-out: pGI50 (converted)
  GI50: 2.24 µM
[19]; [32]
  CC50: 9.33 µM
[19]; read-out: pTGI (converted)
  TGI: 4.57 µM
[20]
  growth at 0.1 µM: 92%
[21]
  growth at 1 µM: 97%
[22]
  growth at 100 µM: -15%
[23]
  growth at 0.01 µM: 104%
[24]
  growth at 1 µM: 94%
[25]
  growth at 1 µM: 96%
[26]; read-out: GI50
  GI50: 3.79 µM
[26]; [31]
  CC50: 54.1 µM
[26]; read-out: TGI
  TGI: 13.1 µM
[26]; read-out: pGI50 (converted)
  GI50: 3.8 µM
[26]; [32]
  CC50: 83.2 µM
[26]; read-out: pTGI (converted)
  TGI: 13.2 µM
[27]
  growth at 100 µM: -83%
[28]
  growth at 0.01 µM: 98%
[29]
  growth at 0.1 µM: 95%
[30]
  growth at 0.01 µM: 93%

— ChEMBL document CHEMBL4308841, “Synthesis, in vitro antiproliferative activity, and kinase inhibitory effects of pyrazole-containing diarylureas and diarylamides” (Eur J Med Chem, 2018)
